This note sets out measurements from ChEMBL document CHEMBL1201862, “PubChem BioAssay data set” (2004).

The target in one test is Mu-type opioid receptor (Homo sapiens, UniProt P35372). As to the kind of experiment: Counterscreen for agonists of heterodimerization of the mu 1 (OPRM1) and delta 1 (OPRD1) opioid receptors: Luminescence-based cell-based high throughput dose response assay to identify agonists of OPRM1 homodimerization. It counts as functional. For orientation: Counterscreens check selectivity or assay interference.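 Also: U2OS cells expressing OPRM1 and beta-arrestin as split beta-galactosidase partners.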
Sequence of Mu-type opioid receptor (P35372 whole entry): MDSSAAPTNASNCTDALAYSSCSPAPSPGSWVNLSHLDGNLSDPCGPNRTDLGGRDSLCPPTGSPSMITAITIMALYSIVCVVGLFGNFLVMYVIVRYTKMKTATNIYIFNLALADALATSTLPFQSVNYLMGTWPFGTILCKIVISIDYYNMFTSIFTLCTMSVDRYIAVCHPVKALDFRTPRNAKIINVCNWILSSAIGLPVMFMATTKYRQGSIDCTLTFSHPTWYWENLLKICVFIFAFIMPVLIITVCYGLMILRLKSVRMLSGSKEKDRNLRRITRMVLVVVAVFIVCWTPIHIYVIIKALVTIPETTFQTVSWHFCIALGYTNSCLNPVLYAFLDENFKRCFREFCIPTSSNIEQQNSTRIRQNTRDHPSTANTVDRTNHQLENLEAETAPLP

In test [1] the target is 5-hydroxytryptamine receptor 5A (Homo sapiens, UniProt P47898). Put plainly: Counterscreen for agonists of OPRM1-OPRD1 heterodimerization: luminescence-based cell-based high throughput dose response assay to identify agonists of 5-hydroxytryptamine (serotonin) 5A receptor (HTR5A). [Related pubchem assays (depositor defined):AID504326, AID504355, AID504692, AID504904, AID504905]. It counts as functional.
Sequence of 5-hydroxytryptamine receptor 5A (P47898 whole entry): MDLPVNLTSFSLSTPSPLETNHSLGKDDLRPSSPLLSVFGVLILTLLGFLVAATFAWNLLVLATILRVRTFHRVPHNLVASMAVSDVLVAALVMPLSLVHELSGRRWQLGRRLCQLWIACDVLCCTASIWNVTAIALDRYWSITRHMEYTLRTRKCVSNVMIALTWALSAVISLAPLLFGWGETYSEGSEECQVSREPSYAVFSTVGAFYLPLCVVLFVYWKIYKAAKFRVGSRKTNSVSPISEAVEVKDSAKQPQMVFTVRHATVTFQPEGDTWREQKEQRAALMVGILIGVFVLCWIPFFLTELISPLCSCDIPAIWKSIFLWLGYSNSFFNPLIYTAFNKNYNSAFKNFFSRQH

For test [2], the target named is Delta-type opioid receptor (Homo sapiens, UniProt P41143). As to the kind of experiment: Counterscreen for agonists of heterodimerization of the mu 1 (OPRM1) and delta 1 (OPRD1) opioid receptors: Luminescence-based cell-based high throughput dose response assay to identify agonists of OPRD1 homodimerization. [Related pubchem assays (depositor defined):AID504326, AID504355, AID504692, AID504904, AID504905]. It counts as functional.
Sequence of Delta-type opioid receptor (P41143 whole entry): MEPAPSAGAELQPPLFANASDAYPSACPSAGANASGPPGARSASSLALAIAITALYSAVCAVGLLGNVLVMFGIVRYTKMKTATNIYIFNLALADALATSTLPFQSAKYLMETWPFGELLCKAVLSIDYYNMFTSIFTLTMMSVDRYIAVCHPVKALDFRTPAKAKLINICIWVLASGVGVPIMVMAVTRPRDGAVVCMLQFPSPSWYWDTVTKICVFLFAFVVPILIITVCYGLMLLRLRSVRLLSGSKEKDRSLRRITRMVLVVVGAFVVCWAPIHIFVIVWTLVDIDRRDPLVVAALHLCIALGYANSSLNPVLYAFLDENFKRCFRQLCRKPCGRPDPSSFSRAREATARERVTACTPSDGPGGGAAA

Test [3] addresses T1, Short transient receptor potential channel 4 (Mus musculus, UniProt Q9QUQ5).
T1 sequence (Q9QUQ5 whole entry): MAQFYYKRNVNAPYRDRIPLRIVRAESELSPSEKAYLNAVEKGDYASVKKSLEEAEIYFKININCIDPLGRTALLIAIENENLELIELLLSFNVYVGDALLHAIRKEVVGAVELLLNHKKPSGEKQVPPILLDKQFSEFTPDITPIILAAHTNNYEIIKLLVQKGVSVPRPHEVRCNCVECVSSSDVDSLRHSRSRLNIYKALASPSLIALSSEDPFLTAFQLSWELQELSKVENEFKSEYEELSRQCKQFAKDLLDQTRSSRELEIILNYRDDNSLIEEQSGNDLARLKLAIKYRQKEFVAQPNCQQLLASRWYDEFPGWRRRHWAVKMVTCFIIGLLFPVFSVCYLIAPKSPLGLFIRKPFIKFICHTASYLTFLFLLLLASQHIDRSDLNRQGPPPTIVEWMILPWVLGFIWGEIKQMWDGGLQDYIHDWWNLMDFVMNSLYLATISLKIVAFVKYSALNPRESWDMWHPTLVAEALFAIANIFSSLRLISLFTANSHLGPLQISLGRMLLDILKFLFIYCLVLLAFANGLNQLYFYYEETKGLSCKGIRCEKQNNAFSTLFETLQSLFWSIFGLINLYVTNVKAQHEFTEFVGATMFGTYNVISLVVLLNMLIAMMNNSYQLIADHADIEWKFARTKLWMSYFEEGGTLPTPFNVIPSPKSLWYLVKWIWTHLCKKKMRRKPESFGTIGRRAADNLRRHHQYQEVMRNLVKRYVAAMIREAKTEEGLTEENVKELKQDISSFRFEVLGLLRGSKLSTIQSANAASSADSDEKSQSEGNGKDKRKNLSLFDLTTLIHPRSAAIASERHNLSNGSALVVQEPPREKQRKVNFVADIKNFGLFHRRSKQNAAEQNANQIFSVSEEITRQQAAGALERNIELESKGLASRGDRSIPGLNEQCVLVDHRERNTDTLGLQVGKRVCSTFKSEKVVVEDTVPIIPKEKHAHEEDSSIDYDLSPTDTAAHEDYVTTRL
Put plainly: mouse TRPC4 channel activators, dose response, cell-based, HEK293 TRPC4/mu-opioid, Fluo-4 calcium (AID 434937). It counts as functional.

Test [4] in a line: growth suppression of PTEN-null colon cells, dose response, cell-based, HCT116 PTEN knockout (AID 1047).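 Also: HCT116 colon tumor cells with PTEN knocked out; cells exposed to compound for 60 hours before readout; potency for loss of cell viability measured by luminescence.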 It counts as functional.
Test [5] has as its system A-375. Put plainly: MITF: Counter assay: A375 proliferation Measured in Cell-Based System Using Plate Reader - 2084-03_Inhibitor_Dose_DryPowder_Activity. [Related pubchem assays (depositor defined):AID488944]. It counts as functional. Conditions: Homo sapiens.
In test [6] the target is T2, Microphthalmia-associated transcription factor (Homo sapiens, UniProt O75030).
T2 sequence (O75030 whole entry): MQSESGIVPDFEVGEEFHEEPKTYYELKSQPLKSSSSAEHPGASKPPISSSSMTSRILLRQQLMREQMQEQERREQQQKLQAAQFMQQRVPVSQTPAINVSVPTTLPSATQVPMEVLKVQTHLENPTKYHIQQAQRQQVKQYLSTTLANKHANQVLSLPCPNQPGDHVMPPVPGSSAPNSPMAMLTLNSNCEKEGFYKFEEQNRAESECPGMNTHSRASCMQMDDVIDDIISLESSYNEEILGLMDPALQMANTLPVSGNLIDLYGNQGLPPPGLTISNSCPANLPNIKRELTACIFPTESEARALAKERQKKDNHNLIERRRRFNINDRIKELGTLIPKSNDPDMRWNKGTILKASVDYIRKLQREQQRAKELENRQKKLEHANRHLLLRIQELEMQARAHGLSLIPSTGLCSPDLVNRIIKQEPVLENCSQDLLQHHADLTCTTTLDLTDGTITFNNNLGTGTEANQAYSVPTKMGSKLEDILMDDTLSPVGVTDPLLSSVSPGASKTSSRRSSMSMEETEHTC
Put plainly: TRPM1 promoter luciferase signal decrease, dose response, MITF inhibitor project, cell-based, SK-MEL-5, cherry-picked, set 3 (AID 493073).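 Also: SK-MEL-5 melanoma cells with luciferase driven by the MITF target TRPM1 promoter.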 It counts as functional.

Test [7] is described as follows: growth suppression of beta-catenin-knockout colon cells, dose response, cell-based, HCT116, human colon tumor (AID 1045).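 Also: HCT116 colon tumor cells with beta catenin knocked out; cells exposed to compound for 60 hours.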 It counts as functional.
The nature of test [8]: Luminescence Cell-Based Dose Response Follow up to Identify Inhibitors of Platelet Dense Granule Release. [Related pubchem assays (depositor defined):AID1663, AID1678, AID1889, AID2519]. It counts as functional.
Test [9] is described as follows: SFLLRN-induced P-Selectin Platelet Surface Expression Measured in Cell-Based System Using Flow Cytometry - 2016-03_Inhibitor_Dose_DryPowder_Activity_Set3. [Related pubchem assays (depositor defined):AID1678]. It counts as functional. Background: A flow cytometer gives signals particle by particle.
Test [10] has as its system Escherichia coli. As to the kind of experiment: microbe, parasite or virus in culture.
Test [11] concerns Escherichia coli. As to the kind of experiment: microbe, parasite or virus in culture. This is another data set of the same source.
The subject of another test is Candida albicans. As to the kind of experiment: reversal of fluconazole resistance in C. albicans, dose response, CaCi-2 strain, Alamar Blue, dry powder, set 3 (AID 488907). It counts as functional, organism-based.
The subject of test [12] is BJ. Put plainly: cytotoxicity toward BJ-TERT-LT-ST fibroblasts, dose response, cell-based, RAS-independent, luminescence (AID 1935).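 Also: BJ fibroblasts immortalized with TERT plus LT and ST oncogenes.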 It counts as functional. Conditions: Homo sapiens.
A short description of test [13]: cytotoxicity toward DRD oncogenic fibroblasts, dose response, cell-based, non-viral oncogenic, luminescence (AID 1934). It counts as functional. The conditions noted are these: Homo sapiens.
Test [14] relates to BJ. As to the kind of experiment: cells. It counts as functional, cell-based. Conditions: Homo sapiens.
In another test the test system is Jurkat. As to the kind of experiment: antigen receptor-induced NF-kB inhibitors, dose response, Jurkat, luciferase reporter, luminescence, B- and T-cell (AID 489004).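 Also: NF-kB luciferase reporter Jurkat cells stimulated with PMA plus ionomycin.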 It counts as functional, cell-based. The conditions noted are these: Homo sapiens. Background: A reporter such as luciferase makes a cellular process visible.
Test [15] is described as follows: off-target signal loss in HeLa-CEM21 co-culture – HeLa F-luc CTL cells, cherry-picked, counter-screen for HIV-1 Env fusion inhibitor project, dose response (AID 652040).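 Also: potency for signal decrease marking cytotoxic or nonspecific inhibition.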 It counts as functional, cell-based.
Test [16] is described as follows: ZM109 Env clade C HIV-1 fusion inhibitors, dose response, HeLa effector, CEM target cells, luciferase, cherry-pick (AID 652058). It counts as functional, cell-based.
The nature of test [17]: inhibitors of clade B AD8 Env fusion, dose response, cell-based, cherry-pick (AID 652062).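 Also: luciferase signal from cell-cell fusion driven by HIV-1 clade B AD8 Env; potency is for inhibitors of fusion seen as a drop in luminescence.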 It counts as functional.
A further test concerns INS1. As to the kind of experiment: beta cell apoptosis inhibitors, cytokine rescue, dose response, luminescence, retest (AID 449756).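 Also: cell death triggered by IL-1 beta plus TNF-alpha plus IFN-gamma mixture; protective hits raise ATP signal compared with cytokine alone wells.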 It counts as functional, cell-based. The conditions noted are these: Rattus norvegicus.
The nature of test [18]: CEM21 lymphoblast cell cytotoxicity, dose response, cytotoxicity control for viral fusion inhibitor project, CellTiter-Glo luminescence, cherry-picked (AID 652042).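 Also: potency for signal decrease meaning cytotoxicity.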 It counts as functional, cell-based.
The nature of the next test: cells. It counts as functional, cell-based. Conditions: HEK-CNG.
Test [19] in a line: cytotoxicity in HEK-293T NF-kB-Luc cells, dose response, cytotoxicity control for B/T-cell NF-kB inhibitor project, cell-based, uHTS hits (AID 489019).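 Also: IC50 reflects cytotoxicity as loss of cell viability.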 It counts as functional.
The subject of test [20] is BJ. As to the kind of experiment: cytotoxicity toward BJ-TERT fibroblasts, dose response, cell-based, RAS-independent, luminescence (AID 1933). It counts as functional. Conditions: Homo sapiens.
A short description of test [21]: inhibitors of HIV Env-driven cell fusion, dose response, cherry-pick (AID 652057). It counts as functional, cell-based.
The target of the next test is Galanin receptor type 3 (Homo sapiens, UniProt O60755). Put plainly: Fluorescence-based cell-based primary high throughput dose response assay to identify antagonists of the Galanin Receptor 3 (GalR3). It counts as functional.
Sequence of Galanin receptor type 3 (O60755 whole entry): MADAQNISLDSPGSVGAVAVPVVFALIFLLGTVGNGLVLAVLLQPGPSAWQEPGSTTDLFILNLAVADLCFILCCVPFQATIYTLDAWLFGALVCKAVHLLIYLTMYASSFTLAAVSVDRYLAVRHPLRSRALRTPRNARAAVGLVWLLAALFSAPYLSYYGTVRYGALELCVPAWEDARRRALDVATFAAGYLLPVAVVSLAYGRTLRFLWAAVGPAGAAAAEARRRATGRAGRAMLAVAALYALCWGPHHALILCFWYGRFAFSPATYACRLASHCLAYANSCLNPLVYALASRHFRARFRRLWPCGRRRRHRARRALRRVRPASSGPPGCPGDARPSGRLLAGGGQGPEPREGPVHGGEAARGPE
The target in test [22] is T3, Rac GTPase-activating protein 1 (Homo sapiens, UniProt Q9H0H5).
T3 sequence (Q9H0H5 whole entry): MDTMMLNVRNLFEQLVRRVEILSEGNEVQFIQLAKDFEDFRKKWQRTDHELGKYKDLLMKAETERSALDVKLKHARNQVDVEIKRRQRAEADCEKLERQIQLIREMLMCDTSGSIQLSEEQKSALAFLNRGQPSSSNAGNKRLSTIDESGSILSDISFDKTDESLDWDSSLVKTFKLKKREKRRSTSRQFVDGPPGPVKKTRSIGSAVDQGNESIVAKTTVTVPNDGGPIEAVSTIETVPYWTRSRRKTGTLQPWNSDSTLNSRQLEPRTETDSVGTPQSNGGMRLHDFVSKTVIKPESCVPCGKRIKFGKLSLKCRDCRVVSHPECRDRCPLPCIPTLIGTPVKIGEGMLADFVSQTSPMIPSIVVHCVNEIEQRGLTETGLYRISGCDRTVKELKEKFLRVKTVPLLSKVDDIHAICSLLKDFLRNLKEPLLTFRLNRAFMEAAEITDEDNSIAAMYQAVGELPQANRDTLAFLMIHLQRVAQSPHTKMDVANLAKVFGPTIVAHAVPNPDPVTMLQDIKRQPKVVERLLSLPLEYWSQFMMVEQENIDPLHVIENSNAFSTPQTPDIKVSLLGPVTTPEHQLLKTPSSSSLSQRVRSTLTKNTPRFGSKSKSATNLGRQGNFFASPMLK
As to the kind of experiment: MgcRacGAP GTPase-activating activity inhibitors, confirmation, biochemical, ADP Hunter fluorescence, primary and confirmatory (AID 624330). It counts as functional.

Test [23] in a line: HeLa cell cytotoxicity, dose response, cytotoxicity control for MgcRacGAP inhibitor project (AID 624300). It counts as functional.
In test [24] the test system is A-375. Put plainly: A375 melanoma cell viability reduction, dose response, counter-screen for MITF modulator project, cherry-pick samples, set 2 (AID 540335). It counts as functional, cell-based. Conditions: Homo sapiens.

Calls of active or inactive are those of the source.

Usually EC50 stands for the concentration that produces a half-maximal response. For the molecule `COc1ccc(C(CNC(=O)CCOc2ccccc2)N(C)C)cc1` (stereo unspecified), the EC50 on Mu-type opioid receptor is > 92.5 µM (inactive); in [1], > 92.5 µM (inactive); in test [2] it was > 92.5 µM (inactive); in test [3], 1.06 µM (active).

In general, AC50 refers to the concentration giving half of the maximal activity seen. As to `Cc1ccc(Cn2c(=N)n(CC(=O)c3ccc([N+](=O)[O-])cc3)c3ccccc32)cc1`, the EC50 in test [4] is 5.32 µM (active); in test [7] it was 4.07 µM (active). For the same molecule, the AC50 with A-375 [5] was 33.5 µM (active); in test [6], 6.42 µM (active).

Turning to `CC(=O)Nc1ccc(NC(=O)c2ccccc2Br)cc1`, the concentration giving a half-maximal response (EC50) in [8] is 8.7 µM (active). Also, in test [9], the AC50 is 6.02 µM (active).

On to `COc1ccc(C)cc1S(=O)(=O)N(C)CC(=O)N1CCC(C(N)=O)CC1`, for which the AC50 was > 380 µM (inactive) in the test on Escherichia coli [10] and 25.7 µM (active) with Escherichia coli [11].

As for `COc1cccnc1N1CCN(C(=O)c2ccc(Cl)cc2)CC1`, the AC50 in the test on Candida albicans was 12.3 µM (active).

A word on the IC50: it is the concentration that inhibits the measured activity by half. For the molecule `CCCCCCCCCn1ccc(=N)cc1`, the EC50 in the test with BJ [12] is > 150 µM (inconclusive); in [13] it was 9.21 µM (active); in the test with BJ [14], 11.9 µM (active); in “cells” it was > 29.9 µM (inactive); in the test on BJ [20], 9.76 µM (inconclusive). The half-maximal inhibitory concentration (IC50) was 6.34 µM (active) with Jurkat, > 80 µM (inactive) in [19] and 1.95 µM (active) on Galanin receptor type 3. In addition, the AC50 was 2.39 µM (active) in test [15]; 2 µM (active) in test [16]; 0.848 µM (active) in test [17]; 0.48 µM (active) with INS1; 24.1 µM (active) in test [18]; 8.77 µM (active) in test [21].

By CC50 is commonly meant the concentration giving 50% cytotoxicity. For the molecule `CN(C)CCNc1ccc2nnn3c4ccc(O)cc4c(=O)c1c23`, in test [22], the IC50 is 62.6 µM (active). Also, the 50% cytotoxic concentration (CC50) in test [23] is 56.5 µM (active). Besides, the concentration at half-maximal activity (AC50) is 46 µM (active) in the test on A-375 [24] and 4.73 µM (active) in test [6].
